Test results from US20100251434A1, “METHOD FOR GROWING SUGARCANE” (SYNGENTA CROP PROTECTION, INC., priority 2007, published 2010).

How the values were obtained:
Conditions in all cases: for Culm Diameter / Leaf Width / Plant Height / Tillers: 42 days after planting
[1] = system: sugar cane Variety RB 86-7515; test: Greenhouse pot test, effect of formulated abamectin on vigour; type: in vivo
Experimental: Greenhouse test with sugarcane buds growing in pots were conducted to study the effect of formulated abamectin regarding “vigour”, tillers, plant height, leaf width and culm diameter on sugar cane Variety RB 86-7515.
1) carretel with one bud treated with abamectin 2) carretel with one bud treated with abamectin+15% v/v of polymer 3) stalk with 3 buds untreated 4) carretel with one bud untreated 5) carretel with one bud untreated+15% v/v of polymer 6) stalk with 3 buds treated with abamectin.
Twenty 1 L pots were filled with 16 L of clay soil, 1.6 L of sand and 8 g of nitrogen, 28 g of phosphorus (P2O5) and 16 g of potassium (K2O). Six carretels of 4 cm length with only one bud were planted in each pot (treatments 1, 2, 4 and 5). Two stalks with three buds were planted in each control pot (treatments 3 and 6) to simulate conventional planting. A layer of 3 cm of soil was used to cover the carretels. The carretels of treatments 1, 2 were treated with 200 ml/ha of abamectin, by dipping the carretels in the slurry for 3 min, based on the uptake capacity of carretels. The stalks were treated simulating a furrow application at 100 L.ha^−1 of slurry. Experimental design adopted was randomized complete block with four replications. The pots were maintained with adequate moisture during the test. Evaluations of: plant height, leaf width, culm diameter and number of tillers were done at 20, 30 and 42 days after planting.

[2] = system: sugar cane Variety RB 86-7515; test: Greenhouse pot test, effect of formulated fipronil on vigour; type: in vivo
Experimental: Greenhouse test with sugarcane buds growing in pots were conducted to study the effect of fipronil equivalent to an application rate of 200 g. ha^−1 on “vigour”, evaluating tillers, plant height, leaf width and culm diameter on sugar cane Variety RB 86-7515.
1) carretel with one bud treated with fipronil (200 g. ha^−1) 2) carretel with one bud treated with fipronil (200 g. ha^−1)+15% v/v of polymer 3) stalk with 3 buds untreated 4) carretel with one bud untreated 5) carretel with one bud untreated+15% v/v of polymer 6) stalk with 3 buds treated with fipronil (200 g. ha-1).
Twenty 1 L pots were filled with 16 L of clay soil, 1.6 L of sand and 8 g of nitrogen, 28 g to of phosphorus (P2O5) and 16 g of potassium (K2O). Six carretels of 4 cm length with one bud were planted in each pot (treatments 1, 2, 4 and 5). Two stalks with three buds were planted in each control pot (treatments 3 and 6) to simulate conventional planting. A layer of 3 cm of soil was used to cover the carretels. The carretels of treatments 1 and 2 were treated with 200 g ai.ha^−1 of fipronil, by dipping the carretels in the slurry for 3 min, based on the uptake capacity of carretels. The stalks were treated simulating a furrow application at 100 L.ha^−1 of slurry. Experimental design adopted was randomized complete block with four replications. The pots were maintained with adequate moisture during the test. Evaluations of: plant height, leaf width, culm diameter and number of tillers were done at 20, 30 and 42 days after planting.

[3] = system: sugar cane Variety RB 86-7515; test: Greenhouse pot test, effect of formulated clothianidin on vigour; type: in vivo
Experimental: Greenhouse test with sugarcane buds growing in pots were conducted to study the effect of clothianidin equivalent to an application rate of 200 g ai. ha^−1 on “vigour”, evaluating tillers, plant height, leaf width and culm diameter. This trial was conducted on sugar cane Variety RB 86-7515.
1) carretel with one bud treated with clothianidin (200 g ai. ha^−1) 2) carretel with one bud treated with clothianidin (200 g ai. ha^−1)+15% v/v of polymer 3) stalk with 3 buds untreated 4) carretel with one bud untreated+15% v/v of polymer 5) carretel with one bud untreated 6) stalk with 3 buds treated with clothianidin (200 g ai. ha^−1).
Twenty 1 L pots were filled with 16 L of clay soil, 1.6 L of sand and 8 g of nitrogen, 28 g of phosphorus (P2O5) and 16 g of potassium (K2O). Six carretels of 4 cm length with one bud were planted in each pot (treatments 1, 2, 4 and 5). Two stalks with three buds were planted in each control pot (treatments 3 and 6) to simulate conventional planting. A layer of 3 cm of soil was used to cover the carretels. The carretels of treatments 1 and 2 were treated with 200 g ai.ha^−1 of clothianidin, by dipping the carretels in a slurry for 3 min. The stalks were treated simulating a furrow application at 100 L.ha^−1 of slurry. The pots were maintained with adequate moisture during the test. Evaluations of: plant height, leaf width, culm diameter and number of tillers were performed at 20, 30 and 42 days after planting.

[4] = system: sugar cane Variety RB 86 7515; test: Greenhouse pot test, effect of formulated imidacloprid on vigour; type: in vivo
Source text: 1) carretel with one bud treated with Imidacloprid (1200 g. ha^−1) 2) carretel with one bud treated with Imidacloprid (1200 g. ha^−1)+15% v/v of polymer 3) stalk with 3 buds untreated 4) carretel with one bud untreated 5) carretel with one bud untreated+15% v/v of polymer 6) stalk with 3 buds treated with Imidacloprid (1200 g. ha^−1).
Twenty 1 L pots were filled with 16 L of clay soil, 1.6 L of sand and 8 g of nitrogen, 28 g of phosphorus (P2O5) and 16 g of potassium (K2O). Six carretels of 4 cm length with one bud were planted in each pot (treatments 1, 2, 4 and 5). Two stalks with three buds were planted in each control pot (treatments 3 and 6) to simulate conventional planting. A layer of 3 cm of soil was used to cover the carretels. The carretels of treatments 1 and 2 were treated with 1200 g ai.ha^−1 of imidacloprid, by dipping the carretels in the slurry for 3 min, based on the uptake capacity of carretels. The stalks were treated simulating a furrow application at 100 L.ha^−1 of slurry. Experimental design adopted was randomized complete block with four replications. The pots were maintained with adequate moisture during the test. Evaluations of: plant height, leaf width, culm diameter and number of tillers were done at 20, 30 and 42 days after planting.

[5] = system: sugarcane Variety RB 86-7515; test: Greenhouse pot test, effect of formulated thiamethoxam on vigour; type: in vivo, sugar cane
Experimental: This trial was conducted on Variety RB 86-7515.

[6] = carretel with one bud, dipped in slurry, 100 g ai/ha (0.0 for Untreated + Polymer)
[7] = stalk with 3 buds, simulated furrow application, 100 g ai/ha
[8] = carretel with one bud, dipped in slurry, 200 g ai/ha (0.0 for Untreated + polymer)
[9] = stalk with 3 buds, simulated furrow application, 200 g ai/ha
[10] = carretel with one bud, dipped in slurry, 1200 g ai/ha (0.0 for Untreated + Polymer)
[11] = stalk with 3 buds, simulated furrow application, 1200 g ai/ha
[12] = carretel with one bud, dipped in slurry, 420 g ai/ha (0.0 for Untreated + Polymer)
[13] = stalk with 3 buds, simulated furrow application, 420 g ai/ha

Compound: abamectin
- Culm Diameter [1, 6]: 7.67 mm
- Leaf Width [1, 6]: 14.58 mm
- Plant Height [1, 6]: 22.22 cm
- Tillers [1, 6]: 14 number
- number of tillers in comparison with the control ([1]; result in words): increase in the number of tillers
- plant height in comparison with the control ([1]; result in words): decrease in plant height
- Culm Diameter [1, 7]: 12.25 mm
- Leaf Width [1, 7]: 20.33 mm
- Plant Height [1, 7]: 22.54 cm
- Tillers [1, 7]: 19.5 number

Compound: N#Cc1nn(-c2c(Cl)cc(C(F)(F)F)cc2Cl)c(N)c1[S+]([O-])C(F)(F)F (stereo not drawn) [Fipronil, fipronil]
- Culm Diameter [2, 8]: 8.69 mm
- Leaf Width [2, 8]: 14.16 mm
- Plant Height [2, 8]: 20.62 cm
- Tillers [2, 8]: 17.25 number
- height of the resultant plants in comparison with the control ([2]; result in words): decreased the height of the resultant plants
- number of tillers in comparison with the control ([2]; result in words): increased the number of tillers
- Culm Diameter [2, 9]: 10.75 mm
- Leaf Width [2, 9]: 18.91 mm
- Plant Height [2, 9]: 22.12 cm
- Tillers [2, 9]: 16.5 number

Compound: CN/C(=N\[N+](=O)[O-])NCc1cnc(Cl)s1 [Clothianidin, clothianidin]
- Culm Diameter [3, 8]: 8.75 mm
- Leaf Width [3, 8]: 17.17 mm
- Plant Height [3, 8]: 25.02 cm
- Tillers [3, 8]: 14.5 number
- number of tillers in comparison with the corresponding control (untreated, one-bud) ([3]; result in words, carretels): increased number of tillers
- plant height in comparison with the corresponding control (untreated, one-bud) ([3]; result in words, carretels): slight reduction in the plant height
- Culm Diameter [3, 9]: 11.25 mm
- Leaf Width [3, 9]: 21.5 mm
- Plant Height [3, 9]: 22.73 cm
- Tillers [3, 9]: 17.0 number

Compound: O=[N+]([O-])NC1=NCCN1Cc1ccc(Cl)nc1 [Imidacloprid]
- Culm Diameter [4, 10]: 8.75 mm
- Leaf Width [4, 10]: 15.91 mm
- Plant Height [4, 10]: 24.0 cm
- Tillers [4, 10]: 15.25 number
- effect on vigour compared with the other active ingredients ([4]; result in words): less pronounced than with the other active ingredients
- number of tillers in comparison with the control ([4]; result in words): increase in the number of tillers
- Culm Diameter [4, 11]: 9.49 mm
- Leaf Width [4, 11]: 20.16 mm
- Plant Height [4, 11]: 23.49 cm
- Tillers [4, 11]: 12.0 number

Compound: CN1COCN(Cc2cnc(Cl)s2)/C1=N\[N+](=O)[O-] [Thiamethoxam, thiamethoxam]
- Culm Diameter [5, 12]: 7.97 mm
- Leaf Width [5, 12]: 14.07 mm
- Plant Height [5, 12]: 23.67 cm
- Tillers [5, 12]: 15.5 number
- number of tillers in comparison with the corresponding controls ([5]; result in words, carretels): increased number of tillers
- plant height in comparison with the corresponding controls ([5]; result in words, carretels): reduced plant height
- increase in "quality" compared with the other treatments ([5]; result in words, not apparent from the listed parameters): increase in “quality” greater than the other treatments
- Culm Diameter [5, 13]: 10.17 mm
- Leaf Width [5, 13]: 19.5 mm
- Plant Height [5, 13]: 26.52 cm
- Tillers [5, 13]: 14.75 number
